Reference: BindingDB's records for PubMed 35227979 (Northwest University, 2022)

Target: Beta-2 adrenergic receptor (Homo sapiens, UniProt P07550)
Assay: Binding affinity to immobilized Halo tag-fused beta2 adrenoceptor (unknown origin) expressed in Escherichia coli BL21 (DE3) assessed as dissociation rate constant by receptor chromatography

Beta-2 adrenergic receptor, sequence (P07550 whole entry, the tested form may be a part): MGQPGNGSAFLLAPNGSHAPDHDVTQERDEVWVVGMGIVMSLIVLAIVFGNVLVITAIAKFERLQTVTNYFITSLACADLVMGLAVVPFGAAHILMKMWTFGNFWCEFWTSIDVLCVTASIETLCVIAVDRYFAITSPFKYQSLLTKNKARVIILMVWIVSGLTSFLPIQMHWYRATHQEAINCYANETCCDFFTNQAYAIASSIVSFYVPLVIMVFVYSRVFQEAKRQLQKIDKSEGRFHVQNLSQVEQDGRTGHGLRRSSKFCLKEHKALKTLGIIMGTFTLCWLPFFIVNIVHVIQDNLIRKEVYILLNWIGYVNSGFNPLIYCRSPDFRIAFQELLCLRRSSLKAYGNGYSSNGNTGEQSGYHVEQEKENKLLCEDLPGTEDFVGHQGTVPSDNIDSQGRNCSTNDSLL

SMILES	Kd [nM]
CC1(C)[C@@H](O)CC[C@]2(C)[C@H]3C(=O)C=C4[C@@H]5C[C@@](C)(C(=O)NCCc6ccc(O)cc6)CC[C@]5(C)CC[C@@]4(C)[C@]3(C)CC[C@@H]12	7.5
CNC(C)Cc1ccccc1OC (configuration not stated) [Methoxyphenamine]	0.98
